# Columns and labels:
# Assay in all cases: relative viability (nuclei count vs DMSO), 5 days (fraction); higher = more cells survive
# [1] = compound: C=CCn1c(=O)c2cnc(Nc3ccc(N4CCN(C)CC4)cc3)nc2n1-c1cccc(C(C)(C)O)n1 [Adavosertib] + Cc1nc(NC(=O)N2CCC[C@H]2C(N)=O)sc1-c1ccnc(C(C)(C)C(F)(F)F)c1 [Alpelisib] (partner 2 µM)
# In short: (§1)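 Relative viability equals treated-well nuclei counts divided by vehicle-well nuclei counts. Counts came from 4× images of lung cancer cell lines grown in 1536-well plates for 5 days after pin-tool dosing on the day after seeding. Dosing used one drug alone or a fixed anchor-drug dose plus five library-drug doses (not always all listed) in √10 steps, and values are medians of duplicate plates.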
# [2] = compound: C=CCn1c(=O)c2cnc(Nc3ccc(N4CCN(C)CC4)cc3)nc2n1-c1cccc(C(C)(C)O)n1 [Adavosertib] + Cc1nc(Nc2ncc(C(=O)Nc3c(C)cccc3Cl)s2)cc(N2CCN(CCO)CC2)n1 [Dasatinib] (partner 0.075 µM)
# In short: as §1
# [3] = compound: COc1nc(N)nc2c1ncn2[C@@H]1O[C@H](CO)[C@@H](O)[C@@H]1O [Nelarabine] + COc1cc2c(Oc3ccc(NC(=O)C4(C(=O)Nc5ccc(F)cc5)CC4)cc3F)ccnc2cc1OCCCN1CCOCC1 [Foretinib] (partner 0.25 µM)
# In short: as §1
# [4] = compound: COc1nc(N)nc2c1ncn2[C@@H]1O[C@H](CO)[C@@H](O)[C@@H]1O [Nelarabine] + C[C@@H](Oc1cc(-c2cnn(C3CCNCC3)c2)cnc1N)c1c(Cl)ccc(F)c1Cl [Crizotinib] (partner 1 µM)
# In short: as §1
Cell Line,relative viability ([1]; first compound 0.01 µM),relative viability ([1]; first compound 0.03162 µM),relative viability ([1]; first compound 0.1 µM),relative viability ([1]; first compound 0.3162 µM),relative viability ([2]; first compound 0.01 µM),relative viability ([2]; first compound 0.03162 µM),relative viability ([2]; first compound 0.1 µM),relative viability ([2]; first compound 0.3162 µM),relative viability ([3]; first compound 0.01 µM),relative viability ([3]; first compound 0.03162 µM),relative viability ([3]; first compound 0.1 µM),relative viability ([3]; first compound 0.3162 µM),relative viability ([3]; first compound 1 µM),relative viability ([4]; first compound 0.01 µM),relative viability ([4]; first compound 0.03162 µM),relative viability ([4]; first compound 0.1 µM),relative viability ([4]; first compound 0.3162 µM),relative viability ([4]; first compound 1 µM)
LC-2-ad,0.768,0.84,0.791,0.804,0.539,0.654,0.582,0.493,1,1.01,0.848,0.885,0.858,0.497,0.404,0.444,0.421,0.447
LOU-NH91,0.704,0.758,0.731,0.66,0.539,0.565,0.622,0.513,0.959,0.938,0.932,0.893,0.977,0.755,1,0.73,0.739,0.733
CAL-12T,1.09,1.27,1.2,0.929,0.501,0.416,0.438,0.222,1.3,1.14,1.15,1.09,1.04,0.517,0.514,0.61,0.806,0.549
NCI-H2009,1.13,1.22,1.13,1.17,0.318,0.294,0.297,0.178,1.19,1.2,1.31,1.22,1.27,1.12,0.99,0.971,1.08,1.05
SK-LU-1,1.04,1.01,0.656,0.291,0.249,0.158,0.148,0.136,1.03,0.584,0.951,0.896,1.03,1.27,0.518,1.04,1.01,0.994
NCI-H3122,0.763,0.656,0.83,0.84,0.816,0.849,0.922,0.893,1.11,0.771,,1.05,0.962,0.265,0.197,,0.301,0.268
NCI-H1437,1.01,1.02,0.897,0.977,0.404,0.323,0.375,0.43,1.4,1.18,1.23,1.25,1.15,1.27,0.844,0.912,0.895,0.905
NCI-H650,1.15,1.1,1.17,0.935,0.37,0.494,0.5,0.465,1.09,1.04,0.968,0.886,1.13,0.627,0.548,0.613,0.693,0.746
HCC-78,0.347,0.305,0.443,0.278,0.389,0.44,0.418,0.401,0.607,0.538,,0.527,0.617,0.379,0.365,,0.34,0.338
ABC-1,0.993,1.04,1.28,1.08,0.551,0.594,0.677,0.563,1.11,0.862,0.931,1.05,0.94,1.07,1.09,0.994,1.14,0.976
A-427,1.08,1.11,1.1,1.04,0.715,0.709,0.805,0.425,1.11,0.97,0.972,1.13,0.954,1.02,0.636,0.872,0.957,0.893
HCC-15,0.904,0.916,0.987,1.04,0.577,0.569,0.574,0.643,1.16,0.996,0.983,1.12,0.992,1.01,0.782,0.86,0.97,0.887
EKVX,0.843,0.858,0.833,0.911,0.534,0.602,0.538,0.52,0.966,0.803,0.732,0.614,0.777,1.16,0.83,0.894,1.41,0.979
BEN,1.24,1.09,1.04,1.18,0.294,0.295,0.297,0.302,0.583,0.744,0.655,0.638,0.556,1.37,0.869,0.896,0.88,0.929
201T,0.986,1.03,0.94,0.962,0.544,0.524,0.568,0.463,1.46,,1.04,1.03,1.05,1.04,0.968,0.84,1.06,1.02
SW 1573,0.724,0.786,0.751,0.761,0.62,0.424,0.633,0.215,0.889,1.09,0.882,0.952,0.86,0.788,0.769,0.745,0.733,0.717
HCC-827,1,1.05,0.995,0.838,0.282,0.284,0.264,0.282,1.01,0.925,0.87,0.822,0.716,0.902,0.811,0.748,0.682,0.607
NCI-H2228,0.839,0.694,0.829,0.343,0.536,0.492,0.475,0.265,0.977,1.02,,0.956,0.86,0.414,0.371,,0.351,0.436

Cell Line,relative viability ([1]; first compound 0.01 µM),relative viability ([1]; first compound 0.03162 µM),relative viability ([1]; first compound 0.1 µM),relative viability ([1]; first compound 0.3162 µM),relative viability ([2]; first compound 0.01 µM),relative viability ([2]; first compound 0.03162 µM),relative viability ([2]; first compound 0.1 µM),relative viability ([2]; first compound 0.3162 µM),relative viability ([3]; first compound 0.01 µM),relative viability ([3]; first compound 0.03162 µM),relative viability ([3]; first compound 0.1 µM),relative viability ([3]; first compound 0.3162 µM),relative viability ([3]; first compound 1 µM),relative viability ([4]; first compound 0.01 µM),relative viability ([4]; first compound 0.03162 µM),relative viability ([4]; first compound 0.1 µM),relative viability ([4]; first compound 0.3162 µM),relative viability ([4]; first compound 1 µM)
NCI-H2085,1.02,0.993,0.969,0.975,0.257,0.266,0.229,0.279,0.96,1.04,0.76,0.881,1.06,0.966,0.618,0.766,0.88,0.965
NCI-H727,0.545,0.593,0.629,0.577,0.316,0.478,0.338,0.301,0.881,0.97,0.912,0.772,0.945,1.05,1.06,0.765,0.94,0.865
NCI-H596,0.51,0.464,0.457,0.422,0.53,0.656,0.66,0.541,0.829,0.917,0.773,0.848,0.84,0.948,1.15,0.96,1.04,1.12
PC-3 [JPC-3],0.99,1.03,1.08,1.07,0.994,0.937,0.933,1.05,1.14,0.99,1.04,1.03,1.09,1.15,1.02,1.01,0.977,0.968
NCI-H1563,0.924,0.943,0.949,1.12,0.462,0.432,0.437,0.466,0.809,0.967,0.811,0.955,0.905,0.815,0.93,0.797,0.845,0.841
COR-L23,0.778,0.687,0.729,0.243,0.63,0.459,0.517,0.239,1.23,1.02,0.917,0.992,0.964,0.692,0.706,0.574,0.617,0.628
RERF-LC-KJ,0.855,0.784,0.764,0.793,0.799,0.774,0.975,0.715,1.1,1.07,0.923,0.858,0.938,0.871,0.954,0.82,0.846,0.902
HCC-366,0.47,0.435,0.501,0.509,0.668,0.631,0.736,0.63,1.03,0.717,0.942,0.974,0.895,0.594,0.222,0.51,1.01,0.618
NCI-H460,0.543,0.518,0.374,0.21,0.477,0.519,0.429,0.359,1.49,1.23,1.13,1.23,1.06,1.32,1.1,1.02,1.08,1.05
NCI-H1915,1.07,1.07,1.13,1.15,0.325,0.315,0.352,0.293,1.13,1.03,1.16,1.1,1.12,1.23,0.941,0.953,0.916,0.881
COR-L 105,1.05,1.12,0.972,0.798,0.285,0.308,0.331,0.246,0.953,0.991,1.26,1.08,0.967,0.998,0.752,0.678,0.894,0.844
NCI-H441,0.807,0.745,0.764,0.596,0.5,0.511,0.575,0.396,0.98,0.977,0.918,0.933,0.943,0.715,0.856,0.723,0.836,0.716
LCLC-103H,0.973,0.926,1.04,0.94,0.422,0.44,0.435,0.356,0.958,0.825,0.72,0.815,0.79,1.12,1.03,1.07,1.08,1.02
HARA,0.746,0.858,0.814,0.63,0.258,0.249,0.283,0.338,1,1.07,0.834,1.23,1.03,1.21,1.09,0.909,1.24,1.12
NCI-H1755,0.983,0.859,0.856,0.868,0.406,0.424,0.447,0.384,0.939,0.82,0.928,1.05,1.01,0.941,0.908,0.874,0.969,0.946
LXF-289,1.08,1.01,1.09,1.07,0.309,0.22,0.213,0.243,1.07,0.922,0.988,1.07,0.969,0.893,0.779,0.804,0.896,0.781
HOP-62,0.924,1.02,1.14,0.955,0.693,0.678,0.644,0.661,1.08,1,1.12,1.05,1.05,1.08,0.933,0.998,0.91,0.831
NCI-H2126,0.75,0.767,0.675,0.752,0.602,0.619,0.564,0.561,1.24,1.13,1.18,1.41,1.08,1.19,1.07,1.01,1.05,0.998

# — the supplement of paper PMC10307832
